Measured values: publication PMC4007162 (Journal of molecular endocrinology, 2011)

Target: T1, ERα (Homo sapiens, UniProt P03372)
T1 sequence (P03372 1-595): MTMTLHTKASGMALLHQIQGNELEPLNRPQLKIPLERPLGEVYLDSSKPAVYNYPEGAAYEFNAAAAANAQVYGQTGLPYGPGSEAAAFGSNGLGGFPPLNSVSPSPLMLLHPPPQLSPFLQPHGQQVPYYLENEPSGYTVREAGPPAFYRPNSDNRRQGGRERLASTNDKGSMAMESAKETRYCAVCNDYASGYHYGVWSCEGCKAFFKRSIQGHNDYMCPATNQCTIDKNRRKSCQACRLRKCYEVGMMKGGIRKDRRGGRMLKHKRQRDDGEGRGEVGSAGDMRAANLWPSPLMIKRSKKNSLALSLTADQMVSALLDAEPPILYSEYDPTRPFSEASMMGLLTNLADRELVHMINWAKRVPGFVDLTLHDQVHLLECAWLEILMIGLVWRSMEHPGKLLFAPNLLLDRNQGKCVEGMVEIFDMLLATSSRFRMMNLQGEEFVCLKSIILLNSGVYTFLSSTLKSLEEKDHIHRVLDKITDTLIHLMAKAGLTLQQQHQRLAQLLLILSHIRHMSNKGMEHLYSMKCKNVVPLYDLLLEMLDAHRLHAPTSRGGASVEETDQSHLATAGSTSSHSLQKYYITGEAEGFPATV
Experiment: fluorescence polarization competition with ES2 tracer, recombinant ER
Assay type: binding

IC50: 85.8 nM
SMILES: Oc1ccc(Nc2nc(-c3ccc(Cl)cc3)cs2)cc1 [SKI-II, 4-[4-(4-chloro-phenyl)-thiazol-2-ylamino]-phenol]
